Counter-ions that a name gives are not always drawn. Like-named read-outs stand apart in the source and are kept apart here.
System: human whole blood
Assay type: cell-based
Conditions: both, 1 h
Description: In-vitro evaluation of the hemolytic influence of the preparations of this invention on human whole blood is determined as a further guide to selecting formulations with a low tendency to produce irritation around the site of injection. The hemolytic potential of a formulation on blood is evaluated by an assay of erythrocyte cytoplasmic marker enzyme, lactate dehydrogenase (LDH) which escapes from the leaky or ruptured erythrocytes into the plasma compartment of the blood. For the assay, blood is obtained from male or female Caucasian human volunteers of 18 to 65 years of age and stabilized with sodium heparin. A test formulation is mixed with an equal volume of human whole blood and incubated at 37° C. for about 1 hour. The mixture is then held at ambient temperature for 30 minutes followed by centrifugation at 1500 rpm for 10 min. The level of LDH in the supernatant is determined according to protocols known in the art. An upper limit titre is determined by measuring the LDH levels resulting from hemolysis by amiodarone hydrochloride, a compound known to result in vein irritation upon venous injection in clinical settings (PDR 1999, p. 3289). Amiodarone hydrochloride IV solution, when tested at 50 mg/mL and after dilution with 5% aqueous dextrose to 1.8 mg/mL can result in LDH values of about 8000 IU/L and about 700 IU/L, respectively.

LDH values (1.8 mg/mL): about 700 IU/L
LDH values (50 mg/mL): about 8000 IU/L
SMILES: CCCCc1oc2ccccc2c1C(=O)c1cc(I)c(OCCN(CC)CC)c(I)c1 [Amiodarone hydrochloride, amiodarone hydrochloride]

— patent US6726919B2, “Injectable dispersion of propofol” (RTP Pharma, Inc., priority 2000, dated 2004)
